Consider one molecule from paper PMC3477139 (PLoS ONE, 2012).

The target in assay [1] is T1, GLP-1R (native, rat insulinoma cell line INS-1E) (Rattus norvegicus, UniProt P32301).
T1 construct: the rat insulinoma cell line, INS-1E, with native expression of the GLP-1R; endogenous in cells; host or cells: INS-1E rat insulinoma cells (gift of Prof. C.B. Wollheim)
T1 sequence (P32301 22-463): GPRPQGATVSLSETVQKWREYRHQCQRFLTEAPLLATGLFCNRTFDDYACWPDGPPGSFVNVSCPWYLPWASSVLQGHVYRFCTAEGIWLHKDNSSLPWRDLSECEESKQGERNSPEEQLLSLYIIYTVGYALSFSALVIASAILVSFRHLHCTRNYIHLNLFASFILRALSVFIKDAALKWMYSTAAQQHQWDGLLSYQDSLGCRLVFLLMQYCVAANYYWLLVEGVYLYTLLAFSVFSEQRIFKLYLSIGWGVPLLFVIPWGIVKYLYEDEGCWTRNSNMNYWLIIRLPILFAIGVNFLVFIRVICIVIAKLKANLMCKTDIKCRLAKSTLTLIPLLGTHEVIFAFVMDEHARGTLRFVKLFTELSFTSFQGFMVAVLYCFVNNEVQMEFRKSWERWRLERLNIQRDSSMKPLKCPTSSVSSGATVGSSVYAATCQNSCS
Briefly: cAMP generation in INS-1E cells. The assay is classed as cell-based. As to the method:
(§1) HEK-Flp-In cells with stable recombinant expression of the human GLP-1R (HEK-GLP-1R) were cultured in DMEM with high glucose supplemented with 10% FBS, 100 µg/ml streptomycin and 100 units/ml penicillin sulphate. These cells were originally generated by transfection of HEK-Flp-In cells (Invitrogen: Paisley, U.K.) with pcDNA5/FRT containing the human GLP-1R. […] INS-1E cells were kindly provided by Prof. C.B. Wollheim of the University of Geneva, Switzerland [19]. These cells were used between passages 65–90 and cultured in RPMI media containing 11.1 mM glucose, 5% heat-inactivated FBS, 100 µg/ml streptomycin, 100 units/ml penicillin sulphate, 100 units/ml neomycin, 50 µM β-mercaptoethanol, 10 mM HEPES and 1 mM sodium pyruvate. All cells were cultured at 37°C in a 5% CO2 humidified atmosphere and passaged at confluence.
(§2) Confluent monolayers of HEK-GLP-1R cells cultured in 24-well plates pre-coated with poly-D-lysine (0.1% w/v) where washed twice with 0.5 ml Krebs-HEPES buffer (KHB, composition: 10 mM HEPES; 4.2 mM NaHCO3; 11.7 mM D-glucose; 1.18 mM MgSO4·7H2O; 1.18 mM KH2PO4; 4.69 mM KCl; 118 mM NaCl; 1.3 mM CaCl2·2H2O; pH 7.4) containing 0.1% (w/v) BSA (KHB-BSA) before incubation (10 min, 37°C) in 360 µl KHB-BSA containing 500 µM isobutylmethylxanthine (IBMX). Ligands or vehicle control (40 µl) were added and reactions terminated after the appropriate times by replacement of the aqueous phase with ice-cold 0.5 M trichloroacetic acid. INS-1E cells grown to confluence in 24-well plates were treated similarly with the exception that after washing in KHB, cells were incubated in 200 µl KHB-BSA containing 1.4 mM glucose without IBMX for 2 h followed by challenge with ligands (or vehicle) for 15 min at 37°C in 400 µl KHB-BSA, in the presence of 10 mM glucose and 500 µM IBMX. Reactions were terminated as above.
(§3) The cAMP was extracted from either intact cell or membrane preparations using a method identical to that for extraction of Ins(1,4,5)P3 [22]. Levels of cAMP were then determined by a competitive radioreceptor assay using binding protein purified from bovine adrenal glands and related to cellular protein assessed by Bradford assay.
(§4) Concentration-response curves were fitted using GraphPad Prism (GraphPad Software Inc., CA) using a standard four parameter logistic equation. All data are representative of n≥3 or are presented as mean+/±s.e.m., where n = 3 unless otherwise stated. Statistical analysis was by oneway ANOVA and where P<0.05, followed by Bonferroni's or Dunnett's multiple range test as indicated. Alternatively analysis was performed by Student's t-test. Where potency estimates are given these are pEC50 values (−log10 of the molar concentration giving 50% of the maximal response).

In assay [2] the target is T2, human GLP-1R (Homo sapiens, UniProt P43220).
T2 construct: expressed in transfected cells; vector pcDNA5/FRT
T2 sequence (P43220 24-463): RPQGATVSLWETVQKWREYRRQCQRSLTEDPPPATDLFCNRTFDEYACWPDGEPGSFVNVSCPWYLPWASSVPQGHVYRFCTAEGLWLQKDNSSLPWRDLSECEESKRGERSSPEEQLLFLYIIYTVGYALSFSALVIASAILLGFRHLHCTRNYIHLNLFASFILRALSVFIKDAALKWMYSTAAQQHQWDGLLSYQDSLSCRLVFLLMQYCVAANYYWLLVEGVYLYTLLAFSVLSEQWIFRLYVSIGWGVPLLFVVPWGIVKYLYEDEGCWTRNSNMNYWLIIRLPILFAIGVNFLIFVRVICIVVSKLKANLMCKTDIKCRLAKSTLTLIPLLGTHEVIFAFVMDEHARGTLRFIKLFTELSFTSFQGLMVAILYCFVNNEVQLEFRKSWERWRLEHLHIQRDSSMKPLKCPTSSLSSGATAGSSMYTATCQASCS
Briefly: cAMP generation in intact HEK-GLP-1R cells. The assay is classed as cell-based. As to the method:
as §1, §2, §3, §4

Assay [3] deals with T2, human GLP-1R. The assay is described as follows: cAMP generation by membranes from HEK-GLP-1R cells. The assay is classed as biochemical. The settings on record: 5 min, 30°C, IBMX. The procedure: as §3, §4
In assay [4] the test system is GLP-1R. The following applies: cited from earlier work. From the text:
Such proteolysis is thought to remove biological activity.

For the next assay, the system named is adenylyl cyclase. The assay is described as follows: cAMP generation by direct activation of adenylyl cyclase with forskolin. The assay is classed as biochemical. The following applies: data not shown. As to the method: Generation of cAMP by cell membranes was determined based on previously published methods, [21]. Membranes were prepared from confluent cell monolayers grown in 80 cm^2 flasks. Cells were washed with 5 ml HBS (154 mM NaCl, 10 mM HEPES, pH 7.4, 37°C), detached using harvesting buffer (154 mM NaCl, 10 mM HEPES, 5.4 mM EDTA, pH 7.4, 37°C) and collected by centrifugation (200 g, 2 min, 4°C). The cell pellet was resuspended in 1 ml of homogenization buffer (10 mM HEPES, 10 mM EDTA, pH 7.4) and sonicated (Sonifier Ultrasonic Cell Disruptor; Branson, CT) at 30% of the maximal amplitude for 3×5 s at ∼30 s intervals before centrifugation (30,000 g, 4°C, 10 min). After removal of the supernatant, pellets were collected in resuspension buffer (10 mM HEPES, 0.1 mM EDTA, pH 7.4), protein concentration adjusted to 1 mg/ml and stored in aliquots at −80°C until assay. Generation of cAMP was determined in 100 µl containing: 10 mM HEPES, 12 mM MgCl2, 60 mM NaCl, 1.2 mM EDTA, 1.2% w/v BSA, 5% DMSO, 480 µM ATP, 2 mM IBMX, 10 µM GTP, 20 µg membrane and ligands as indicated. […]
as §3

Assay [5] deals with GLP-1R. The settings on record: ref [7]; cited from earlier work.

Take `CC(C)(C)Nc1nc2cc(Cl)c(Cl)cc2nc1S(C)(=O)=O` [compound 2, 6,7-dichloro-2-methylsulfonyl-3-N-tert-butylaminoquinoxaline]: in assay [1] (3 µM compound 2 alone, 15 min), the “cAMP elevation (INS-1E)” value was 40±8 pmol/mg protein. For the same molecule, in assay [1] (15 min, 10 mM glucose, IBMX), the “cAMP response in INS-1E (in words)” value is listed as “elevated cAMP with low-potency”. For the same molecule, in assay [1] (compound 2 alone, concentrations greater than 10 µM not tested), the “Emax as % of that evoked by GLP-1 7–36 amide, cAMP (INS-1E)” value is recorded as 34%. Moreover, on human GLP-1R [2] (1 µM compound 2, IBMX), the “time of peak cAMP response” value amounted to 30 min. In addition, the “cAMP response over time (in words)” value on human GLP-1R [2] (1 µM, over 60 min, IBMX, 5% DMSO, n = 3) is “evoked a more robust increase, which peaked at 30 min and then declined”. At human GLP-1R [2] (concentration-response, 15 min, IBMX), the “cAMP response (in words)” value is “at >3 µM caused progressively lower cAMP responses, resulting in a bell-shaped concentration-response curve”. Besides, the “maximal response (Emax), cAMP” value at human GLP-1R [2] (no pretreatment (buffer 10 min), 15 min challenge, IBMX, pH 7.4, 37°C, mean±s.e.m., n = 3) is given as 1908±91 pmol/mg protein. The “pEC50, cAMP” value on human GLP-1R [2] (no pretreatment (buffer 10 min), 15 min challenge, IBMX, compound 2: rising phase of bell-shaped curve, mean±s.e.m., n = 3) was 5.94±0.04. Also, the “Emax as % of the GLP-1 7–36 amide response, cAMP” value on human GLP-1R [2] (no pretreatment, 15 min challenge, IBMX) turned out to be 72%. Further, the “pEC50, cAMP, after preincubation with GLP-1 9–36 amide” value at human GLP-1R [2] (preincubated 10 min with 1 µM GLP-1 9–36 amide, 15 min challenge, IBMX, compound 2: rising phase, mean±s.e.m., n = 3) is 6.55±0.07. Further, the “cAMP response in membranes (in words)” value at human GLP-1R [3] is recorded as “enhanced the ability of GLP-1 9–36 amide to increase cAMP”. For the same molecule, the “cAMP level (membranes)” value at human GLP-1R [3] (compound 2 alone, 3 µM, mean±s.e.m., n = 3) is given as 2623±269 pmol/mg protein. For the same molecule, the “effect at the GLP-1R (in words)” value with GLP-1R [4] (ago-allosteric modulator, ref [15]) was “not only enhancing affinity of the GLP-1R for GLP-1 but providing effective direct agonism”. Also, in the assay on GLP-1R [4] (ref [7], [15]), the “effect on affinity for GLP-1 and on its potency or intrinsic activity” value was “modestly increases the affinity for GLP-1 it has little impact on potency or intrinsic activity”. The “interaction of compound 2 and GLP-1 7–36 amide on ERK activation” value in the assay on GLP-1R [4] (ref [16]) was “lack of interaction between compound 2 and GLP-1 7–36 amide on ERK activation”. Besides, in the assay on adenylyl cyclase, the “effect on forskolin-stimulated cAMP generation” value was “inability of compound 2 to influence cAMP generation”. The “effect on GLP-1 7–36 amide-mediated internalization of the GLP-1R” value with GLP-1R [5] is given as “can inhibit GLP-1 7–36 amide-mediated internalization of the GLP-1R”.
